Measured values taken from US8574608B2, “Bactericidal silver surfactant delivery into coating and polymer compositions” (Eastern Michigan Universtity, priority 2007, dated 2013).
Values joined by “and” are separate entries in the source; they are usually repeats but may differ in a detail not shown here. Identical values can stand only once. Like-named read-outs stand apart in the source and are kept apart here.

Legend:
Staphylococcus aureus = assay: Growth on agar plates containing sodium surfactant; format: cell-based; also: test concentration or dose not given here
Bacillus subtilis = assay: Growth on agar plates containing sodium surfactant; format: cell-based; also: test concentration or dose not given here
Streptococcus viridans = assay: Growth on agar plates containing sodium surfactant; format: cell-based
Streptococcus bovis = assay: Growth on agar plates containing sodium surfactant; format: cell-based
Enterococcus fecalis = assay: Growth on agar plates containing sodium surfactant; format: cell-based; also: test concentration or dose not given here
[1] = tested on: Staphylococcus epidermidis; assay: Growth on agar plates containing sodium surfactant; format: cell-based
Streptococcus pneumoniae = format: cell-based
Streptococcus pyogenes = assay: Growth on agar plates containing sodium surfactant; format: cell-based
Streptococcus agalactiae = assay: Growth on agar plates containing sodium surfactant; format: cell-based; also: test concentration or dose not given here
Candida tropicalis = format: cell-based
Micrococcus luteus = assay: Growth on agar plates containing sodium surfactant; format: cell-based
Gram-negative bacteria = format: cell-based
Gram-positive bacteria = format: cell-based
B. subtilis = format: cell-based, Bacillus subtilis
S. aureus = format: cell-based, Staphylococcus aureus

CCCCC(CC)COC(=O)CC(C(=O)OCC(CC)CCCC)S(=O)(=O)[O-].[Na+] (stereo not shown) [sodium bis[2-ethylhexyl]sulfosuccinate]
killed: effect on the yeast Candida tropicalis (Candida tropicalis) | effect on all Gram-positive bacteria tested (Gram-positive bacteria)
killed all: killing of B. subtilis (B. subtilis) | killing of S. aureus (S. aureus)
resistant: response of Gram-negative bacteria (Gram-negative bacteria)
−: Survival: No Growth/Full Growth (Staphylococcus aureus) | Survival: No Growth/Full Growth (Bacillus subtilis) | Survival: No Growth/Full Growth (Streptococcus viridans) | Survival: No Growth/Full Growth (Streptococcus bovis) | Survival: No Growth/Full Growth (Enterococcus fecalis) | Survival: No Growth/Full Growth [1] | Survival: No Growth/Full Growth (Streptococcus pneumoniae) | Survival: No Growth/Full Growth (Streptococcus pyogenes) | Survival: No Growth/Full Growth (Streptococcus agalactiae) | Survival: No Growth/Full Growth (Candida tropicalis) | Survival: No Growth/Full Growth (Micrococcus luteus)

O=C(CC(C(=O)OC1CCCCC1)S(=O)(=O)[O-])OC1CCCCC1.[Na+] (stereo not shown) [Compound S5]
+: Survival: No Growth/Full Growth (Staphylococcus aureus; agar plates with sodium surfactant, strain ATCC6538, replicates 1-2 or 1-3) | Survival: No Growth/Full Growth (Staphylococcus aureus; agar plates with sodium surfactant, strain EM24/ATCC25923, replicates 1-2 or 1-3) | Survival: No Growth/Full Growth (Bacillus subtilis; agar plates with sodium surfactant, strain EM27, replicates 1-2 or 1-3) | Survival: No Growth/Full Growth (Streptococcus viridans; agar plates with sodium surfactant, strain EM8, replicates 1-2 or 1-3) | Survival: No Growth/Full Growth (Enterococcus fecalis; agar plates with sodium surfactant, strain EM19, first line, replicates 1-2 or 1-3) | Survival: No Growth/Full Growth (Enterococcus fecalis; agar plates with sodium surfactant, strain EM19, second line, replicates 1-2 or 1-3) | Survival: No Growth/Full Growth ([1]; agar plates with sodium surfactant, strain EM3/ATCC12228, replicates 1-2 or 1-3)
− and +: Survival: No Growth/Full Growth (Bacillus subtilis; agar plates with sodium surfactant, strain ATCC33, replicates 1-2 or 1-3) | Survival: No Growth/Full Growth (Streptococcus agalactiae; agar plates with sodium surfactant, strain EM13, replicates 1-2 or 1-3)
− (2×) and +: Survival: No Growth/Full Growth (Micrococcus luteus; agar plates with sodium surfactant, strain EM17, replicates 1-2 or 1-3)
−: Survival: No Growth/Full Growth (Streptococcus bovis; agar plates with sodium surfactant, strain EM12, replicates 1-2 or 1-3) | Survival: No Growth/Full Growth (Streptococcus pyogenes; agar plates with sodium surfactant, strain EM14, replicates 1-2 or 1-3)
